Data as given in US5135938A, “Leukotriene antagonists” (SmithKline Beecham Corporation, priority 1990, dated 1992).
Counter-ions that a name gives are not always drawn.

molecular target: T1, LTD4 induced contraction of guinea pig tracheal spiral strips (Cavia porcellus, UniProt Q2NNR5); test: Inhibition of leukotriene (LTD4) induced contraction of guinea pig tracheal tissues in vitro; type: cell-based; details: LTD4 concentration-response on guinea pig tracheal strips, 30 minutes pretreatment with test compound; KB from EC30 shift; current average where tested more than once; read-out: In Vitro Log K8 (-log KB, leukotriene antagonist activity) (converted)
T1 construct: Guinea pig (adult male albino Hartley strain) tracheal spiral strips; from tissue; host or cells: guinea pig trachea (adult male albino Hartley strain), spiral strips
T1 sequence (Q2NNR5 1-340): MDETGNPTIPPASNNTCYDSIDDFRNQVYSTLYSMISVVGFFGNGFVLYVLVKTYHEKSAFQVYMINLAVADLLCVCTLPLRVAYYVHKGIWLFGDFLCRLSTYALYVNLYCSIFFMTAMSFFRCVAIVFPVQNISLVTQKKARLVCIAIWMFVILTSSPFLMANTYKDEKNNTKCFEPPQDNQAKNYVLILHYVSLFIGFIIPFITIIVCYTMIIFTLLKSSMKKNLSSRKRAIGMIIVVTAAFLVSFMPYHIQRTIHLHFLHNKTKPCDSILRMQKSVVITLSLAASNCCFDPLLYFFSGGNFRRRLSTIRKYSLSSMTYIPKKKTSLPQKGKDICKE
Procedure: The leukotriene antagonist activity of the compounds of this invention is measured by the ability of the compounds to inhibit the leukotriene induced contraction of guinea pig tracheal tissues in vitro. The following methodology was employed:
In vitro: Guinea pig (adult male albino Hartley strain) tracheal spiral strips of approximate dimensions 2 to 3 mm cross-sectional width an 3.5 cm length were bathed in modified Krebs buffer in jacketed 10 ml tissue bath and continuously aerated with 95% O2 /5% CO2. The tissues were connected via silk suture to force displacement transducers for recording isometric tension. The tissues were equilibrated for 1 hr., pretreated for 15 minutes with meclofenamic acid […] to remove intrinsic prostaglandin responses, and then pretreated for an additional 30 minutes with either the test compound or vehicle control. A cumulative concentration-response curve for LTD4 on triplicate tissues was generated by successive increases in the bath concentration of the LTD4. In order to minimize intertissue variability, the percentage of the maximum response obtained to a reference agonist, carbachol […].
Calculations: The averages of the triplicate LTD4 concentration-response curves both in the presence and absence of the test compound were plotted on log graph paper. The concentration of LTD4 needed to elicit 30% of the contraction elicited by carbachol was measured and defined as the EC30. The -log KB value for the test compound was determined by the following equations: [formula] 2. KB =concentration of test compound/(X-1)
The antagonist activity of representative compounds of this invention is tabulated below in Table I (other data appears in the preparative examples). The -log KB values were calculated from the above test protocol. Where compounds were tested more than once, the -log KB values given herein represent the current average data.

In order of falling Kb:
1. O=C(O)CCCn1nnnc1SC(CC(=O)O)c1ccccc1CCCCCCCCc1ccccc1 (stereo not drawn) [Example 8, 3-[2-(8-Phenyloctyl)phenyl]-3-[[1-(3-carboxypropyl)-5-tetrazolyl]thio]propanoic acid]  1000 nM
2. O=C(O)CC(Sc1nnnn1CC(=O)O)c1ccccc1CCCCCCCCc1ccccc1 (stereo not drawn) [Example 7, 3-[2-(8-Phenyloctyl)phenyl]-3-[(1-carboxymethyl-5-tetrazolyl)thio]propanoic acid]  501 nM
3. CCCCCCCCCCCCc1ccccc1C(Sc1nnnn1CS(=O)(=O)O)C(=O)O (stereo not drawn) [Example 4, 2-(2-Dodecylphenyl)-2-[(1-sulfomethyl-5-tetrazolyl)thio]acetic acid ammonium salt hydrate]  398 nM
4. CCCCCCCCCCCCc1ccccc1C(SCCc1nnn[nH]1)C(=O)O (stereo not drawn) [Example 12, 2-(2-dodecylphenyl)-2-[2-(tetrazol-5-yl)ethylthio]acetic acid]  316 nM
5. CCCCCCCCCCCCc1ccccc1C(CC(=O)O)Sc1nnnn1CCCC(=O)O (stereo not drawn) [Example 6, 3-(2-dodecylphenyl)-3-[[1-(3-carboxypropyl)-5-tetrazolyl]thio]propanoicacid]  251 nM
6. CCCCCCCCCCCCc1ccccc1C(Sc1nc(C)c(C(=O)O)s1)C(=O)O (stereo not drawn) [Example 15, 2-(2-Dodecylphenyl)-2-(5-carboxy-4-methyl-2-thiazolylthio)acetic acid]  200 nM
7. O=C(O)CCCn1nnnc1SC(c1ccccc1CCCCCCCCc1ccccc1)C(O)C(=O)O (stereo not drawn) [Example 13, 3-[2-(8-phenyloctyl)phenyl]-3-[[1-(3-carboxypropyl)-5-tetrazolyl]thio]-2-hydroxypropanoic acid]  100 nM
8. O=C(O)Cn1nnnc1SC(c1ccccc1CCCCCCCCc1ccccc1)C(O)C(=O)O (stereo not drawn) [Example 14, 3-[2-(8-phenyloctyl)phenyl]-3-[(1-carboxymethyl-5-tetrazolyl)thio]-2-hydroxypropanoic acid]  100 nM
9. CCCCCCCCCCCCc1ccccc1C(Sc1nnnn1CCCC(=O)O)C(=O)O (stereo not drawn) [Example 3, 2-(2-Dodecylphenyl)-2-[[1-(3-carboxypropyl)-5-tetrazolyl]thio]acetic acid]  39.8 nM
